The text below walks through data of ChEMBL document CHEMBL1201862, “PubChem BioAssay data set” (2004).

What is called IC50 is the concentration needed to halve the response being measured. What is called CC50 is the concentration giving 50% cytotoxicity. What is called Ki is the equilibrium dissociation constant of an inhibitor or competing ligand from its target. One may read the EC50 as the concentration needed to bring the measured effect to its halfway point.

Calls of active or inactive are those of the source.

Holding throughout (assay type): functional
Assay [1] has as its target Ras and Rab interactor 1/Tyrosine-protein kinase ABL1 (Homo sapiens, UniProt P00519+Q13671).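 Also: biochemical TR-FRET dose-response test measuring inhibition of binding between Rin1 and Abl proteins.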
Assay [2] in a line: THP-1 cell cytotoxicity, cytotoxicity control, set 4 (AID 504911). As to conditions: Mycobacterium tuberculosis.
A further assay addresses T1, Aurora kinase A (Homo sapiens, UniProt O14965).
T1 sequence (O14965 whole entry): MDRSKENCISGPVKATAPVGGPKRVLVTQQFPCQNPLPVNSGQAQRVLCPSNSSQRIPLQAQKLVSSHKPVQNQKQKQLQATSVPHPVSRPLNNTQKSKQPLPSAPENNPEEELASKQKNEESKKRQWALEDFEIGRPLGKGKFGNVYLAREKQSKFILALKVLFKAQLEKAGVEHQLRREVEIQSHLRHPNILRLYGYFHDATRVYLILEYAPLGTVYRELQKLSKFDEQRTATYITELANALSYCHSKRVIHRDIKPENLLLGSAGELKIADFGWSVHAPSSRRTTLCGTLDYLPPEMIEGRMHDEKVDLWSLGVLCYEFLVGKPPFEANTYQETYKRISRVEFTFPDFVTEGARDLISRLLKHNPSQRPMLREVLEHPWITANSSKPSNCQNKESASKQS

The next assay concerns the target Aurora kinase B (Homo sapiens, UniProt Q96GD4).
The target in assay [3] is Vascular endothelial growth factor receptor 2 (Homo sapiens, UniProt P35968).
Chain of Vascular endothelial growth factor receptor 2 (P35968 whole entry): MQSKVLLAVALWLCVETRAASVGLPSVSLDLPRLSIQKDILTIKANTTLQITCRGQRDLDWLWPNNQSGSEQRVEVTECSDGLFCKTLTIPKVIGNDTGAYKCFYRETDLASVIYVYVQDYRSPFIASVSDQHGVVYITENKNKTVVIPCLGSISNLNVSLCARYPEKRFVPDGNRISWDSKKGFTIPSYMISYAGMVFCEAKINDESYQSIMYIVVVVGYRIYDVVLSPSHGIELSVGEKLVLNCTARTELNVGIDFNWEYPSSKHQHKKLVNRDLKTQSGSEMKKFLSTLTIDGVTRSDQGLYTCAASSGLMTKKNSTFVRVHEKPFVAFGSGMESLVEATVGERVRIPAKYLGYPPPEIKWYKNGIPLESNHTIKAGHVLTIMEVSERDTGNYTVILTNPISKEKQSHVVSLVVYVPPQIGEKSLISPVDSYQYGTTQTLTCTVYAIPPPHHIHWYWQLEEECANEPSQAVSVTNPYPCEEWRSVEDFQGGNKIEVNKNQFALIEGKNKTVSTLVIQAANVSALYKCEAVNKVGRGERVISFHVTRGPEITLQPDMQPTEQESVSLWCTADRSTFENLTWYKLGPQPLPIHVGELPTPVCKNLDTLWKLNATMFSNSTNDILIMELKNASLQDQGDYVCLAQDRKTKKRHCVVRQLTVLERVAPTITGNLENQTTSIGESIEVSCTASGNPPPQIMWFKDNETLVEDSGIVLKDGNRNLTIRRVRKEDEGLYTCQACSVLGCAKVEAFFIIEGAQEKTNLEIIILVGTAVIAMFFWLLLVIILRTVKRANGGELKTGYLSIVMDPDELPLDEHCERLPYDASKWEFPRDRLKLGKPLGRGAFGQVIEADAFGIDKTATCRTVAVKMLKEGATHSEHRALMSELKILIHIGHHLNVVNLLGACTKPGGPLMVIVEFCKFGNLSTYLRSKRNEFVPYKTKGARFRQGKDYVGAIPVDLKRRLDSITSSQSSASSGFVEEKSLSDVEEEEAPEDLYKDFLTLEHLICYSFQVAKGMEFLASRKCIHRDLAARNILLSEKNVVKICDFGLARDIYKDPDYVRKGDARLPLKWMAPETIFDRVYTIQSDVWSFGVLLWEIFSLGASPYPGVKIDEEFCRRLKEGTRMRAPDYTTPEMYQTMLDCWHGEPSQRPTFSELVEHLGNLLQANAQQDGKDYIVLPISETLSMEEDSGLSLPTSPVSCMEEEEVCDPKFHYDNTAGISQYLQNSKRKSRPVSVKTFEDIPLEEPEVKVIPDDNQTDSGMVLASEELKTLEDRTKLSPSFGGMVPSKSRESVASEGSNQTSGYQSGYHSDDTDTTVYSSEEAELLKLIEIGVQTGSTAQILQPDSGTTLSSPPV
In assay [4] the target is Mitochondrial peptide methionine sulfoxide reductase (Bos taurus, UniProt P54149). Kind of assay: Absorbance-based biochemical high throughput dose response assay for activators of Methionine sulfoxide reductase A (MsrA).
Chain of Mitochondrial peptide methionine sulfoxide reductase (P54149 whole entry): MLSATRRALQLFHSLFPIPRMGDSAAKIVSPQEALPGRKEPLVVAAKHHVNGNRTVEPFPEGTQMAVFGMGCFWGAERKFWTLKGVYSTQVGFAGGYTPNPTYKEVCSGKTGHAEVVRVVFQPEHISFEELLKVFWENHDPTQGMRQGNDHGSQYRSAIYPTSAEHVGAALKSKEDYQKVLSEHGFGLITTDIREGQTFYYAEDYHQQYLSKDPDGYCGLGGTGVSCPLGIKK
For assay [5], the target named is T2, Sentrin-specific protease 8 (Homo sapiens, UniProt Q96LD8).
T2 sequence (Q96LD8 whole entry): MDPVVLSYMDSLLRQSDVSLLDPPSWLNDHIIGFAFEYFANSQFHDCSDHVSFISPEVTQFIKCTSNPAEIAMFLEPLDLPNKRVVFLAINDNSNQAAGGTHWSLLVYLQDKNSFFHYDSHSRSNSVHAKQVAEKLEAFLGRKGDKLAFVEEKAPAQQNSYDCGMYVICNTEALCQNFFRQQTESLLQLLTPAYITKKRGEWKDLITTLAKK

The target in assay [6] is T3, Sentrin-specific protease 7 (Homo sapiens, UniProt Q9BQF6).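 Also: Luminescence-based dose-response confirmation of ultra-high-throughput screening hits, measuring inhibition of SENP7.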
T3 sequence (Q9BQF6 whole entry): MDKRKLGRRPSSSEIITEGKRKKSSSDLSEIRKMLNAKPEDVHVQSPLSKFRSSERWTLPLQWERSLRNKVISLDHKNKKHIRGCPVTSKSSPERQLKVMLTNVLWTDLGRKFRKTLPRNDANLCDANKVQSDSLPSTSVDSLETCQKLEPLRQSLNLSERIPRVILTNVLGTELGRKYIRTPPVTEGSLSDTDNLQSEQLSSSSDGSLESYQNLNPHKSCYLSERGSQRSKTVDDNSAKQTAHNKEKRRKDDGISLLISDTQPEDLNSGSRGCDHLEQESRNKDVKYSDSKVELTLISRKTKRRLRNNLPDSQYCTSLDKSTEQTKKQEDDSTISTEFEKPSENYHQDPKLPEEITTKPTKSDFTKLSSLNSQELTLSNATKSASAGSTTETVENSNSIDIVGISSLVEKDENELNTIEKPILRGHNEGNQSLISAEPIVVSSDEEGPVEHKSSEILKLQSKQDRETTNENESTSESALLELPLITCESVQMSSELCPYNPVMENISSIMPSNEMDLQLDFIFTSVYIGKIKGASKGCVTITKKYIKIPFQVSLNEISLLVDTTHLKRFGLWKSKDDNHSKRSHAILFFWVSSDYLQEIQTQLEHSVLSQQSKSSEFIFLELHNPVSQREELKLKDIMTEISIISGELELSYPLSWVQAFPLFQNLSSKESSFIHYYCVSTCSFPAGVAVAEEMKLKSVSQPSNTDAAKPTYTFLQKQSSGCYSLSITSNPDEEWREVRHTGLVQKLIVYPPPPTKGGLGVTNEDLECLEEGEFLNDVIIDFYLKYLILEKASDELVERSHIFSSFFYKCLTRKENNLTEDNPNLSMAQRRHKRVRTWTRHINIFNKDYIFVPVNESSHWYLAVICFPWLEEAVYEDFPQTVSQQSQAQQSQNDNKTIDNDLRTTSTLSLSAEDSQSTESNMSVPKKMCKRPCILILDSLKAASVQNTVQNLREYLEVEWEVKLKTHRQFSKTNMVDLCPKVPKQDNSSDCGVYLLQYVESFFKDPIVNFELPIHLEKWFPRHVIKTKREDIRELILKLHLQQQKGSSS

For assay [7], the target named is T2, Sentrin-specific protease 8. The source holds these as a separate data set.
A further assay deals with T4, Caspase-3 (Homo sapiens, UniProt P42574).
T4 sequence (P42574 whole entry): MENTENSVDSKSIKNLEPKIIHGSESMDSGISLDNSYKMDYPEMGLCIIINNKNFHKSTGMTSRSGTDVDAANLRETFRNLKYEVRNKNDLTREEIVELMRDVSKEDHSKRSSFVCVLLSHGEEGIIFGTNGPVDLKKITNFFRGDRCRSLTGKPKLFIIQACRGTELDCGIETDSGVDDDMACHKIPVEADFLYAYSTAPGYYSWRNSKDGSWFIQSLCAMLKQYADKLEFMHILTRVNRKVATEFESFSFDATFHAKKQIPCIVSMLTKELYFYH

Assay [8] concerns the target T5, Sentrin-specific protease 6 (Homo sapiens, UniProt Q9GZR1).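 Also: Luminescence-based dose-response confirmatory assay of SENP6 inhibition, following up an ultra-high-throughput screen.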
T5 sequence (Q9GZR1 whole entry): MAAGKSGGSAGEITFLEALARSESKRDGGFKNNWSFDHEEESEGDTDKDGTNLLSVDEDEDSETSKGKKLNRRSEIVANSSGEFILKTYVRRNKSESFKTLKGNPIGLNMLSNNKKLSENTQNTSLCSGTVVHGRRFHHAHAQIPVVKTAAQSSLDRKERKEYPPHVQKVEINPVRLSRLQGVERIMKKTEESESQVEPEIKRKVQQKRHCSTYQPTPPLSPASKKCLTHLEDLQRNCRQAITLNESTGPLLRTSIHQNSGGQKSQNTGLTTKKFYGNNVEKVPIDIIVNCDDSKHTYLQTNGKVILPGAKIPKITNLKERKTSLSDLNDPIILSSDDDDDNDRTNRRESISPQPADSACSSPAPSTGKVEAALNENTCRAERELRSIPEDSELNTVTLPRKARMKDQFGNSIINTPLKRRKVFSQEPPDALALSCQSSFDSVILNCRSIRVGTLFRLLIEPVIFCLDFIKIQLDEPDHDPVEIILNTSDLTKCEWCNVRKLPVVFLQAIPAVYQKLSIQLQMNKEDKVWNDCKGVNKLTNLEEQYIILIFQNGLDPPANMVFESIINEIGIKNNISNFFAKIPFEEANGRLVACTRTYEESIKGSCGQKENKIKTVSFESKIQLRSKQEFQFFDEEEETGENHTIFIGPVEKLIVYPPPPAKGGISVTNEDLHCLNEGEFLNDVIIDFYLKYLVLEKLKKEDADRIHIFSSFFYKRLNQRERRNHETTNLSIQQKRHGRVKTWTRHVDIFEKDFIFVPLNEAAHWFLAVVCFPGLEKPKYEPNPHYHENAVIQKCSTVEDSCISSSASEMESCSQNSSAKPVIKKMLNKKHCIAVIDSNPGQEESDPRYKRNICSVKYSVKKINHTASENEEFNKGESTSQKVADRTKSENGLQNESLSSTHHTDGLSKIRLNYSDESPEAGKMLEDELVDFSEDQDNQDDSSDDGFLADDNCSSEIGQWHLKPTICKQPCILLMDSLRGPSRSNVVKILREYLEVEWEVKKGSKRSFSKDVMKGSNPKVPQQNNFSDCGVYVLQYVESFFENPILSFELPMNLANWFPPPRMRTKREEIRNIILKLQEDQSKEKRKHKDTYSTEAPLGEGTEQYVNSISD

Assay [9] addresses T6, High affinity choline transporter 1 (Homo sapiens, UniProt Q9GZV3).
T6 sequence (Q9GZV3 whole entry): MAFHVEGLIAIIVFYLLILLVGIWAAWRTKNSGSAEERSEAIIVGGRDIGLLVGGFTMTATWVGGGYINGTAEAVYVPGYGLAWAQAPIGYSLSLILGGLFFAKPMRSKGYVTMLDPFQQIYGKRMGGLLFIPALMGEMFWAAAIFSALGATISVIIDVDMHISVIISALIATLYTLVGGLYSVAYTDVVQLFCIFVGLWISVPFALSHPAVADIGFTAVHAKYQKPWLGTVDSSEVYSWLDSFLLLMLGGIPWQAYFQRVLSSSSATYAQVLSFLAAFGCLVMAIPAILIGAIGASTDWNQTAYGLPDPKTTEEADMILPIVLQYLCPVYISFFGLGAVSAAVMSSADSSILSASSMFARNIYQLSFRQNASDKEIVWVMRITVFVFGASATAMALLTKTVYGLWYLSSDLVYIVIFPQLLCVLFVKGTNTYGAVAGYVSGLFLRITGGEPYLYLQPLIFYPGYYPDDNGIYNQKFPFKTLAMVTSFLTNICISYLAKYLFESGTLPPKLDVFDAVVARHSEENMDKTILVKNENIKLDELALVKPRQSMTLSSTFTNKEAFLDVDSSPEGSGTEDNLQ
Kind of assay: CHT inhibitors, dose response, cell-based, 10-point CRC, membrane potential dye (AID 588401).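 Also: membrane potential dye fluorescence of choline-evoked depolarization via CHT.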

Assay [10] concerns the target T6, High affinity choline transporter 1. The experiment in a line: CHT inhibitors, dose response, cell-based, 5-point CRC, membrane potential dye (AID 504840).
For assay [11] the target is unchanged. Kind of assay: inhibitors of CHT choline uptake, dose response, cell-based, 3H-choline uptake, CHT LV-AA trafficking mutant, CRC (AID 602208).

Chain of Aurora kinase B (Q96GD4 whole entry): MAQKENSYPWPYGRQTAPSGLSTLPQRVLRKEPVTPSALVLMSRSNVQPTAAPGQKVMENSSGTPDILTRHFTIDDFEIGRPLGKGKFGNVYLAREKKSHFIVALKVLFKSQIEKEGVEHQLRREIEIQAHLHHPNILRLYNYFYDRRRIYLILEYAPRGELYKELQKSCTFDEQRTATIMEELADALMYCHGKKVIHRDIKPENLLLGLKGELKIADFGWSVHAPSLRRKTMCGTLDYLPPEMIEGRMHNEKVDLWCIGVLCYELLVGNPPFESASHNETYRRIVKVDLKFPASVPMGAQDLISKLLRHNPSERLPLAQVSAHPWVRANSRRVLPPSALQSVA
Chain of Ras and Rab interactor 1/Tyrosine-protein kinase ABL1 (P00519 whole entry): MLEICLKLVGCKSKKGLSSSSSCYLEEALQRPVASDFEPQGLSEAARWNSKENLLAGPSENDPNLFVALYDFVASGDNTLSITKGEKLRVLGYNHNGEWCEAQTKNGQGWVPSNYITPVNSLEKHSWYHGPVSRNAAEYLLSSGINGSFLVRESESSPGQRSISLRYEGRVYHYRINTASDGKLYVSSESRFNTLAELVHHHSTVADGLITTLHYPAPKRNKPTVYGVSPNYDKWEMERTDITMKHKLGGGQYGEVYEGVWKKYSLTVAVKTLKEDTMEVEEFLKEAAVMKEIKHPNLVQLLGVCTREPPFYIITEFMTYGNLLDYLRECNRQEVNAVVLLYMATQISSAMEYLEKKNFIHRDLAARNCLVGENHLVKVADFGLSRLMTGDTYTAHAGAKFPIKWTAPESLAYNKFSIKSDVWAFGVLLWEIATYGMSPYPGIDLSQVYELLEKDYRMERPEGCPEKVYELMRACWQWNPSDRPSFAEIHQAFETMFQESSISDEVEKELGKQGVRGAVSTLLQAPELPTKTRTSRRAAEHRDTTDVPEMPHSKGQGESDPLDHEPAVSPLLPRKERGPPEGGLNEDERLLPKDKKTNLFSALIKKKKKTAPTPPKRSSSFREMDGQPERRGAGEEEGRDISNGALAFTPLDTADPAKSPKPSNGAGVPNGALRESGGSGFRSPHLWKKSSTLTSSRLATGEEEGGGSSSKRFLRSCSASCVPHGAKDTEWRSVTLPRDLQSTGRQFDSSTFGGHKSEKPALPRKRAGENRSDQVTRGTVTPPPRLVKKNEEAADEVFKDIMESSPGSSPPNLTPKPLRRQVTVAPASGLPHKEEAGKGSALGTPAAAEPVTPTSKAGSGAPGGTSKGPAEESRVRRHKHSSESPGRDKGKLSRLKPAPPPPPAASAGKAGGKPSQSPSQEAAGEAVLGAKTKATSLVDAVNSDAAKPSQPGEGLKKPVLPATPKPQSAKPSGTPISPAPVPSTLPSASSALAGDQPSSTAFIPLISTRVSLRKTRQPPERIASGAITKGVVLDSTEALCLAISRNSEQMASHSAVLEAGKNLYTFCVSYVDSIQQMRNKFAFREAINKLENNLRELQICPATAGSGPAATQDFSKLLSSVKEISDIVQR
Chain of Ras and Rab interactor 1/Tyrosine-protein kinase ABL1 (Q13671 whole entry): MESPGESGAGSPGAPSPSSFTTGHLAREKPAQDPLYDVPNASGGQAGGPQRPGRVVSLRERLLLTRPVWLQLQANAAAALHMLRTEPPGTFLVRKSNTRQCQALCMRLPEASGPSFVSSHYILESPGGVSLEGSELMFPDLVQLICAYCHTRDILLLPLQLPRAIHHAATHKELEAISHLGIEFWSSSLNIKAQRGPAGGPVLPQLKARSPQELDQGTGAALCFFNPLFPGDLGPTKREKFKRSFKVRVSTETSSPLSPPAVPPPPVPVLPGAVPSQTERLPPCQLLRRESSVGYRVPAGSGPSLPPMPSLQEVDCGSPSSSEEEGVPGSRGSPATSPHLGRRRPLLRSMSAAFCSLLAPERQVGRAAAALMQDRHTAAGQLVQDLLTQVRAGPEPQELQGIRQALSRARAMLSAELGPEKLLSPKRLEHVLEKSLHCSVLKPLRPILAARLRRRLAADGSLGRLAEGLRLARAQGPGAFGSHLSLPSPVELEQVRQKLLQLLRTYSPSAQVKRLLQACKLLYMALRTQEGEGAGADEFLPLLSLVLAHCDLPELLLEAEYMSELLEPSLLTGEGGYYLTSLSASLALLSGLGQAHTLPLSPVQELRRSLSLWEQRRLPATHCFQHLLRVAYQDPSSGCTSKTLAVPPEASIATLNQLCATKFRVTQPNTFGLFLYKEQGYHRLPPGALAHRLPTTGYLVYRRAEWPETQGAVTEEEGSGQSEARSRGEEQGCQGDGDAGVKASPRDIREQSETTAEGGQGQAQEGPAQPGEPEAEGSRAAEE

For the compound `N#Cc1ccccc1Sc1ccccc1C(=O)NCC(c1ccco1)N1CCCC1` (centres undefined), the IC50 in assay [1] was 2480 nM (active).

For `CCSc1nc(C)c(C)c(O)n1`, the 50% cytotoxic concentration (CC50) in assay [2] is > 100000 nM (active).

`COc1cc(Nc2ncc(C(F)(F)F)c(OC)n2)cc(OC)c1OC`: the inhibition constant (Ki) is 50.1 nM (active) at Aurora kinase A, 15.8 nM (active) on Aurora kinase B and 631 nM (active) in [3].

On to `O=C(OCC(=O)N1CCN(c2ccccc2)CC1)c1ccc([N+](=O)[O-])s1`, for which, in assay [4], the EC50 is 24800 nM (inactive). For the same compound, the IC50 in assay [5] was 5370 nM (active); in [6], 13800 nM (active); in [7] it was 2310 nM (active); at Caspase-3, 10200 nM (active); in assay [8], 6710 nM (active).

Consider `CC(NC(=O)c1ccc(OC2CCN(Cc3ccccn3)CC2)cc1)c1ccccc1` (centres undefined), for which the IC50 in [9] is 1260 nM (active); in assay [10], 1600 nM (active); in [11] it was 1790 nM (active).
